From US20250339409A1, “USES OF PAN BET INHIBITORS” (VYNE THERAPEUTICS INC., priority 2021, published 2025)

Tested on: imiquimod-induced psoriasis
Assay: Imiquimod-induced psoriasis (Th17 inflammation) model in mice, topical treatment once daily D7-D13: PASI, modified PASI, body weight, use of enrichment, TEWL
Type: in vivo
Parameters: key to Mean score use enrichment: 0 = no use of dental rolls to 4 = use of all 4; key to PASI Mean score values: sum of erythema, induration, peeling scores, each 0-3 (0 = none)
Settings: imiquimod-induced mice
Procedure: Thirty-six (36) female Balb/c mice are weighed and randomly divided into 9 groups (n=4) according to body weight on D1. For mice of native group 1 and tolerance groups 8 and 9, no induction of psoriasis is performed between D1 and D13. Psoriasis is induced in groups 2 to 7 by once daily topical application for 13 days (from day 1 to day 13) of 65 mg of Aldara™ cream (5.0% imiquimod) onto the shaved and epilated back of mice. Before the first treatment, a second randomization of mice of the 6 imiquimod-induced psoriasis groups is performed according to the severity of psoriasis (PASI), and also the body weight of mice. Starting on day 7 and until day 13, 100 mg of test formulations […] and 65 mg of vehicle (groups 1 and […]) are topically administered once daily for 7 consecutive days onto the shaved back skin of mice. Several measurements are taken during treatment period from day 7 to day 14: psoriasis index (PASI), body weight, use of enrichment and mortality. At the end of treatment period, TEWL is assessed, and blood and skin samples are collected. Histological analysis of skin samples is used for microscopic scoring of psoriasis and the determination of the thickness of parakeratosis and epidermis and blood analysis is used for assessing the level of proinflammatory biomarkers (cytokines assays). The effect of treatment of psoriasis induced mice with BETi formulations at the four dose levels are compared with Dermoval® cream containing 0.05% clobetasol propionate (reference) and vehicle (positive control) and also with healthy mice treated with vehicle (negative control).
PASI scoring takes into account the following 3 parameters: the presence of erythema on the skin, induration of the skin (thickening) and peeling of the skin at the area of the induction of psoriasis.
The presence of erythema on the skin at the area of induction of psoriasis with the following scoring grid: • 0=no or no more erythema on the skin, • 1=weak erythema on the skin, • 2=moderate erythema on the skin, • 3=important erythema on the skin.
The presence of induration of the skin at the area of induction of psoriasis with the following scoring grid: • 0=no or no more induration of the skin, • 1=weak induration of the skin, • 2=moderate induration of the skin, • 3=important induration of the skin.
The presence of peeling of the skin at the area of induction of psoriasis with the following scoring grid: • 0=no or no more dryness/peeling of the skin, • 1=weak dryness/peeling of the skin, • 2=moderate dryness/peeling of the skin, • 3=important dryness/peeling of the skin.
The sum of the mean scores of these 3 parameters result in the mean PASI score.
One of the issues with a steroid is that it causes skin thinning and continues to have an effect on no longer inflamed skin and the model set up and measurements above are not designed to reflect this negative effect. Therefore, a modified PASI (mPASI) is calculated in the same the manner as mean PASI score but excludes the scoring for induration (thickening of the skin).
Mice are weighed three times during the week of D1 to D7, and then daily during the week of D7 to D13, as well as on the day D14 when they are sacrificed. It should be noted that a characteristic body weight loss of mice is observed after the start of the induction of psoriasis, mainly during the first days following it. The body weight loss can reach between 10 to 15%.
For the duration of the experiment, dental rolls are used as enrichment and placed in each cage and replaced twice. Between D1 and D7, the number of dental rolls used by animals are determined twice in the morning, and are determined daily during D7 to D14, at the time of PASI or the tolerance assessment. The use of dental rolls is scored from 0=no use of dental rolls to 4=use of the 4 dental rolls. In the case where only half of a dental roll is used, a score of 0.5 is assigned. […]

In the case of Cn1cc(-c2cccc(O)c2Oc2ccccc2)c2cc[nH]c2c1=O [BETi1], the “PASI Mean score values” (D 7) was 8.00, the “Modified PASI Mean score values” (D 7, listed as BETI1 0.01%) was 5.75 and the “Modified PASI Mean score values” (D 7, listed as BETI1 0.1%) was 5.75. The “Modified PASI Mean score values” (D 7, listed as BETI1 1.0%) was 5.50, the “Mean score use enrichment” value (D 7, listed as BETi 0.001%) was 4.00 and the “Mean score use enrichment” value (D 7, listed as BETi 0.01%) was 3.50. The “Mean score use enrichment” value (D 7, listed as BETi 0.1%) was 3.00, the “Modified PASI Mean score values” (D 7, listed as BETi1 0.001%) was 5.50 and the “Mean score use enrichment” value (D 7, listed as BETi 1.0%) was 2.00. The “Mean score use enrichment” value (D 8-D 14, listed as BETi 0.001%) was 3.17, the “Mean score use enrichment” value (D 8-D 14, listed as BETi 0.01%) was 3.58 and the “Mean score use enrichment” value (D 8-D 14, listed as BETi 0.1%) was 3.75. For the same molecule, the “Mean score use enrichment” value (D 8-D 14, listed as BETi 1.0%) was 3.58, the “Modified PASI Mean score values” (D 8, listed as BETI1 0.1%) was 6.00 and the “PASI Mean score values” (D 8, listed as BETI1 0.1%) was 8.50. For the same molecule, the “Modified PASI Mean score values” (D 8, listed as BETI1 1.0%) was 6.25, the “PASI Mean score values” (D 8, listed as BETI1 1.0%) was 9.00 and the “Mean score use enrichment” value (D 8, listed as BETi 0.001%) was 4.00. For the same molecule, the “Mean score use enrichment” value (D 8, listed as BETi 0.01%) was 4.00, the “Mean score use enrichment” value (D 8, listed as BETi 0.1%) was 3.25 and the “Modified PASI Mean score values” (D 8, listed as BETi1 0.001%) was 7.00. The “PASI Mean score values” (D 8, listed as BETi1 0.001%) was 10.00, the “Modified PASI Mean score values” (D 8, listed as BETi1 0.01%) was 5.50 and the “PASI Mean score values” (D 8, listed as BETi1 0.01%) was 8.25. For the same molecule, the “Mean score use enrichment” value (D 8, listed as BETi 1.0%) was 2.25, the “Modified PASI Mean score values” (D 9, listed as BETI1 0.1%) was 4.50 and the “PASI Mean score values” (D 9, listed as BETI1 0.1%) was 7.25. For the same molecule, the “Modified PASI Mean score values” (D 9, listed as BETI1 1.0%) was 5.75, the “PASI Mean score values” (D 9, listed as BETI1 1.0%) was 8.50 and the “Mean score use enrichment” value (D 9, listed as BETi 0.001%) was 1.00. The “Mean score use enrichment” value (D 9, listed as BETi 0.01%) was 2.25, the “Mean score use enrichment” value (D 9, listed as BETi 0.1%) was 2.75 and the “Modified PASI Mean score values” (D 9, listed as BETi1 0.001%) was 6.25. The “PASI Mean score values” (D 9, listed as BETi1 0.001%) was 9.25, the “Modified PASI Mean score values” (D 9, listed as BETi1 0.01%) was 4.00 and the “PASI Mean score values” (D 9, listed as BETi1 0.01%) was 6.75. For the same molecule, the “Mean score use enrichment” value (D 9, listed as BETi 1.0%) was 2.00, the “Modified PASI Mean score values” (D 10, listed as BETI1 0.1%) was 2.75 and the “PASI Mean score values” (D 10, listed as BETI1 0.1%) was 4.50. For the same molecule, the “Modified PASI Mean score values” (D 10, listed as BETI1 1.0%) was 4.75, the “PASI Mean score values” (D 10, listed as BETI1 1.0%) was 7.25 and the “Mean score use enrichment” value (D 10, listed as BETi 0.001%) was 2.25. The “Mean score use enrichment” value (D 10, listed as BETi 0.01%) was 3.25, the “Mean score use enrichment” value (D 10, listed as BETi 0.1%) was 3.75 and the “Modified PASI Mean score values” (D 10, listed as BETi1 0.001%) was 5.50. The “PASI Mean score values” (D 10, listed as BETi1 0.001%) was 8.50, the “Modified PASI Mean score values” (D 10, listed as BETi1 0.01%) was 3.50 and the “PASI Mean score values” (D 10, listed as BETi1 0.01%) was 6.00. The “Mean score use enrichment” value (D 10, listed as BETi 1.0%) was 3.00, the “Modified PASI Mean score values” (D 11, listed as BETI1 0.1%) was 1.25 and the “PASI Mean score values” (D 11, listed as BETI1 0.1%) was 2.75. The “Modified PASI Mean score values” (D 11, listed as BETI1 1.0%) was 3.50, the “PASI Mean score values” (D 11, listed as BETI1 1.0%) was 5.50 and the “Mean score use enrichment” value (D 11, listed as BETi 0.001%) was 3.75. For the same molecule, the “Mean score use enrichment” value (D 11, listed as BETi 0.01%) was 4.00, the “Mean score use enrichment” value (D 11, listed as BETi 0.1%) was 4.00 and the “Modified PASI Mean score values” (D 11, listed as BETi1 0.001%) was 5.50.
